Values joined by “and” are separate entries in the source; they are usually repeats but may differ in a detail not shown here. Equal entries are not always repeated. Toxic doses and inconclusive results are not listed. No stated cut-off is given here; in the data, active means T/C of 150% or more; inactive means T/C below 125%.
Tested on: L1210 leukemia ip in BDF1 mice, survival T/C
Experiment: NCI In Vivo Anticancer Drug Screen. Data for tumor model L1210 Leukemia (intraperitoneal) in B6D2F1 (BDF1) mice
Settings: endpoint: mean survival time, higher = longer survival
Summary of the method: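 Each compound was tested against a transplantable tumor grown in mice. The endpoint was survival, with treated animals benchmarked against vehicle controls as a simple ratio.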

[1] = dose: 50.0 mg/kg/injection, schedule: Q01DX009 (ip), vehicle: saline
[2] = dose: 100.0 mg/kg/injection, schedule: Q01DX009 (ip), vehicle: saline
[3] = dose: 100.0 mg/kg/injection, schedule: Q04DX003 (ip), vehicle: saline
[4] = dose: 200.0 mg/kg/injection, schedule: Q01DX009 (ip), vehicle: saline
[5] = dose: 200.0 mg/kg/injection, schedule: Q04DX003 (ip), vehicle: saline
[6] = dose: 100.0 mg/kg/injection, schedule: Q01DX001 (ip), vehicle: carboxymethylcellulose (CMC)
[7] = dose: 200.0 mg/kg/injection, schedule: Q01DX001 (ip), vehicle: carboxymethylcellulose (CMC)
[8] = dose: 400.0 mg/kg/injection, schedule: Q01DX001 (ip), vehicle: carboxymethylcellulose (CMC)
[9] = dose: 100.0 mg/kg/injection, schedule: Q01DX009 (ip), vehicle: saline with Tween-80
[10] = dose: 200.0 mg/kg/injection, schedule: Q01DX009 (ip), vehicle: saline with Tween-80
[11] = dose: 100.0 mg/kg/injection, schedule: Q04DX003 (ip), vehicle: saline with Tween-80
[12] = dose: 200.0 mg/kg/injection, schedule: Q04DX003 (ip), vehicle: saline with Tween-80
[13] = dose: 400.0 mg/kg/injection, schedule: Q04DX003 (ip), vehicle: saline with Tween-80
[14] = dose: 100.0 mg/kg/injection, schedule: Q01DX009 (ip), vehicle: Klucel (hydroxypropylcellulose) (HPC)
[15] = dose: 200.0 mg/kg/injection, schedule: Q01DX009 (ip), vehicle: Klucel (hydroxypropylcellulose) (HPC)
[16] = dose: 400.0 mg/kg/injection, schedule: Q01DX009 (ip), vehicle: Klucel (hydroxypropylcellulose) (HPC)
[17] = dose: 100.0 mg/kg/injection, schedule: Q01DX001 (ip), vehicle: Klucel (hydroxypropylcellulose) (HPC)
[18] = dose: 200.0 mg/kg/injection, schedule: Q01DX001 (ip), vehicle: Klucel (hydroxypropylcellulose) (HPC)

Measured: T/C

CCN(CC)CCCC#CCN1CCOCC1
inactive: [1] 101 % of control | [2] 93 % of control | [3] 103 % of control | [4] 93 % of control | [5] 109 % of control

S=C(Nc1ccc(Cl)c(Cl)c1)SCc1ccc2c(c1)OCO2
inactive: dose: 37.5 mg/kg/injection, schedule: Q01DX009 (ip), vehicle: saline 120 % of control | dose: 75.0 mg/kg/injection, schedule: Q04DX003 (ip), vehicle: saline with Tween-80 101 % of control | dose: 150.0 mg/kg/injection, schedule: Q01DX009 (ip), vehicle: saline 102 % of control | dose: 150.0 mg/kg/injection, schedule: Q04DX003 (ip), vehicle: saline with Tween-80 104 % of control | dose: 300.0 mg/kg/injection, schedule: Q04DX003 (ip), vehicle: saline with Tween-80 123 % of control

NC(=S)N/N=C/c1ccccc1O
inactive: dose: 50.0 mg/kg/injection, schedule: Q01DX001 (ip), vehicle: carboxymethylcellulose (CMC) 96 % of control | [6] 104 % of control | dose: 100.0 mg/kg/injection, schedule: Q04DX002 (ip), vehicle: saline with Tween-80 90 % of control | [7] 91 % of control | dose: 200.0 mg/kg/injection, schedule: Q04DX002 (ip), vehicle: saline with Tween-80 104 % of control | [8] 91 % of control | dose: 400.0 mg/kg/injection, schedule: Q04DX002 (ip), vehicle: saline with Tween-80 93 % of control

CS(=O)(=O)c1ccc(N)cc1
inactive: dose: 6.25 mg/kg/injection, schedule: Q04DX003 (ip), vehicle: Klucel (hydroxypropylcellulose) (HPC) 99 % of control | dose: 12.5 mg/kg/injection, schedule: Q04DX003 (ip), vehicle: Klucel (hydroxypropylcellulose) (HPC) 95 % of control | dose: 25.0 mg/kg/injection, schedule: Q04DX003 (ip), vehicle: Klucel (hydroxypropylcellulose) (HPC) 95 % of control | dose: 50.0 mg/kg/injection, schedule: Q01DX009 (ip), vehicle: saline with Tween-80 100 % of control | [1] 93 % of control | [9] 92 % of control | [2] 87 % of control | [10] 92 % of control | [4] 93 % of control

O=C(O)c1ccc(F)cc1O
inactive: dose: 100.0 mg/kg/injection, schedule: Q01DX001 (ip), vehicle: saline 97 % of control | dose: 200.0 mg/kg/injection, schedule: Q01DX001 (ip), vehicle: saline 109 % of control

COc1ccc(C(C)c2ccc(OC)cc2)cc1
inactive: [11] 93 % of control | [12] 95 % of control | [13] 91 % of control

O=C(Nc1ccc(Br)cc1)Nc1cccc(Cl)c1
inactive: dose: 100.0 mg/kg/injection, schedule: Q04DX002 (ip), vehicle: saline 103 % of control | dose: 200.0 mg/kg/injection, schedule: Q04DX002 (ip), vehicle: saline 103 % of control | dose: 400.0 mg/kg/injection, schedule: Q04DX002 (ip), vehicle: saline 96 % of control

O=COCCc1ccccc1
inactive: [14] 102 % of control | [15] 102 % of control | [16] 97 % of control

Cn1c(NCC[N+](C)(C)C)nc2ncncc21
inactive: dose: 15.0 mg/kg/injection, schedule: Q01DX001 (ip), vehicle: saline 90 % of control | dose: 30.0 mg/kg/injection, schedule: Q01DX001 (ip), vehicle: saline 93 % of control | dose: 60.0 mg/kg/injection, schedule: Q01DX001 (ip), vehicle: saline 95 % of control

N#Cc1c(N)ncc2c1CCCC2
inactive: dose: 50.0 mg/kg/injection, schedule: Q01DX009 (ip), vehicle: Klucel (hydroxypropylcellulose) (HPC) 102 % of control | [14] 98 % of control | [15] 105 % of control

CC(C)(C)OC(=O)N1Cc2cc3ccccc3nc2C1
inactive: [1] 98 % of control | [2] 94 % of control | [3] 96 % of control | [5] 100 % of control

CCCCCCCC(=O)N(CCCCC)CCCCC
inactive: [6] 99 % of control | dose: 100.0 mg/kg/injection, schedule: Q01DX009 (ip), vehicle: carboxymethylcellulose (CMC) 93 % of control and 101 % of control | dose: 100.0 mg/kg/injection, schedule: Q04DX002 (ip), vehicle: carboxymethylcellulose (CMC) 97 % of control | dose: 100.0 mg/kg/injection, schedule: Q04DX003 (ip), vehicle: carboxymethylcellulose (CMC) 101 % of control | [7] 96 % of control | dose: 200.0 mg/kg/injection, schedule: Q01DX009 (ip), vehicle: carboxymethylcellulose (CMC) 97 % of control and 90 % of control | dose: 200.0 mg/kg/injection, schedule: Q04DX002 (ip), vehicle: carboxymethylcellulose (CMC) 107 % of control | dose: 200.0 mg/kg/injection, schedule: Q04DX003 (ip), vehicle: carboxymethylcellulose (CMC) 98 % of control | [8] 91 % of control | dose: 400.0 mg/kg/injection, schedule: Q04DX002 (ip), vehicle: carboxymethylcellulose (CMC) 96 % of control | dose: 400.0 mg/kg/injection, schedule: Q04DX003 (ip), vehicle: carboxymethylcellulose (CMC) 102 % of control

CCCCC/C(C=O)=C\c1ccccc1
inactive: [9] 104 % of control | [11] 94 % of control | [10] 91 % of control | [12] 96 % of control | dose: 400.0 mg/kg/injection, schedule: Q01DX009 (ip), vehicle: saline with Tween-80 93 % of control | [13] 105 % of control

CC(C)CCCC(C)CCC1=C(O)c2ccccc2C(=O)C1=O (stereo unspecified)
inactive: [17] 102 % of control | dose: 100.0 mg/kg/injection, schedule: Q04DX003 (ip), vehicle: Klucel (hydroxypropylcellulose) (HPC) 101 % of control | [18] 98 % of control | dose: 200.0 mg/kg/injection, schedule: Q04DX003 (ip), vehicle: Klucel (hydroxypropylcellulose) (HPC) 97 % of control | dose: 400.0 mg/kg/injection, schedule: Q01DX001 (ip), vehicle: Klucel (hydroxypropylcellulose) (HPC) 100 % of control | dose: 400.0 mg/kg/injection, schedule: Q04DX003 (ip), vehicle: Klucel (hydroxypropylcellulose) (HPC) 97 % of control

COc1ccccc1/C=N\NC(=O)C1CC1
inactive: dose: 15.0 mg/kg/injection, schedule: Q01DX Z (ip), vehicle: carboxymethylcellulose (CMC) 102 % of control | dose: 30.0 mg/kg/injection, schedule: Q01DX Z (ip), vehicle: carboxymethylcellulose (CMC) 97 % of control | dose: 60.0 mg/kg/injection, schedule: Q01DX Z (ip), vehicle: carboxymethylcellulose (CMC) 97 % of control and 101 % of control | dose: 120.0 mg/kg/injection, schedule: Q01DX Z (ip), vehicle: carboxymethylcellulose (CMC) 101 % of control and 102 % of control | dose: 240.0 mg/kg/injection, schedule: Q01DX Z (ip), vehicle: carboxymethylcellulose (CMC) 98 % of control | dose: 480.0 mg/kg/injection, schedule: Q01DX Z (ip), vehicle: carboxymethylcellulose (CMC) 101 % of control | dose: 480.0 mg/kg/injection, schedule: Q01DX Z (oral), vehicle: carboxymethylcellulose (CMC) 106 % of control | dose: 960.0 mg/kg/injection, schedule: Q01DX Z (oral), vehicle: carboxymethylcellulose (CMC) 93 % of control

O=S(=O)(/N=C1C=C/C(=N\S(=O)(=O)c2ccccc2)c2ccccc2\1)c1ccccc1
inactive: [11] 88 % of control | [12] 90 % of control | [13] 93 % of control

Cc1ccc(NC(=O)Nc2cccc(F)c2)cc1C
inactive: [14] 94 % of control | [15] 97 % of control | [16] 95 % of control

CCCCCCCCCCCC(C)(O)CC (stereo unspecified)
inactive: [11] 95 % of control | [12] 95 % of control | [13] 101 % of control

CC(=O)OCCC/C(=C\c1ccc(F)cc1)[N+](=O)[O-]
inactive: dose: 100.0 mg/kg/injection, schedule: Q01DX001 (ip), vehicle: other 111 % of control

Nc1ccc(OCc2ccc(S(=O)(=O)F)c(Cl)c2)c(Cl)c1
inactive: dose: 100.0 mg/kg/injection, schedule: Q01DX009 (ip), vehicle: other 91 % of control | [3] 93 % of control | dose: 200.0 mg/kg/injection, schedule: Q01DX009 (ip), vehicle: other 92 % of control | [5] 95 % of control | dose: 400.0 mg/kg/injection, schedule: Q04DX003 (ip), vehicle: saline 98 % of control

COc1ccc2c(c1)CCC1C2CCC2C(O)CCCC21 (stereo unspecified)
inactive: dose: 50.0 mg/kg/injection, schedule: Q01DX001 (ip), vehicle: Klucel (hydroxypropylcellulose) (HPC) 95 % of control | [17] 93 % of control | [18] 87 % of control
